Numbered stars: 1 amine (or outer) side, 2 acyl side, 3 side chain; on linkers, the order of the positions; unused ones are H or OH. Bridge positions count the residues as written; N and C are the ends. Square brackets hold non-standard residues; d marks the D form. Peptide text beside a SMILES is read from it. * marks the point of attachment. X19 = NC(=O)[C@H](CCCCNC(=O)CN1CCN(CC(=O)O)CCN(CC(=O)O)CCN(CC(=O)O)CC1)NC(=O)CCC(=O)NCCCOCCOCCNCCCN*; mXylylene = c1cc(C[*:1])cc(C[*:2])c1; 3Amb = NCc1cccc(C(=O)O)c1; 4Amb = NCc1ccc(C(=O)O)cc1; Hexanoyl = CCCCCC(=O)*; GABA = NCCCC(=O)O
Key:
[1] = molecular target: T1, FAP-expressing human WI-38 fibroblasts (Homo sapiens, UniProt Q12884); assay: Competitive FACS binding assay; settings: pIC50 Category (FACS), competition with 3 nM Cy5-labeled compound, WI-38 fibroblasts, 4° C., 1 hour
T1 construct: FAP-expressing human WI-38 fibroblasts (ECACC) were cultured in EMEM; host or cells: WI-38 human fibroblasts
T1 sequence (Q12884 1-760): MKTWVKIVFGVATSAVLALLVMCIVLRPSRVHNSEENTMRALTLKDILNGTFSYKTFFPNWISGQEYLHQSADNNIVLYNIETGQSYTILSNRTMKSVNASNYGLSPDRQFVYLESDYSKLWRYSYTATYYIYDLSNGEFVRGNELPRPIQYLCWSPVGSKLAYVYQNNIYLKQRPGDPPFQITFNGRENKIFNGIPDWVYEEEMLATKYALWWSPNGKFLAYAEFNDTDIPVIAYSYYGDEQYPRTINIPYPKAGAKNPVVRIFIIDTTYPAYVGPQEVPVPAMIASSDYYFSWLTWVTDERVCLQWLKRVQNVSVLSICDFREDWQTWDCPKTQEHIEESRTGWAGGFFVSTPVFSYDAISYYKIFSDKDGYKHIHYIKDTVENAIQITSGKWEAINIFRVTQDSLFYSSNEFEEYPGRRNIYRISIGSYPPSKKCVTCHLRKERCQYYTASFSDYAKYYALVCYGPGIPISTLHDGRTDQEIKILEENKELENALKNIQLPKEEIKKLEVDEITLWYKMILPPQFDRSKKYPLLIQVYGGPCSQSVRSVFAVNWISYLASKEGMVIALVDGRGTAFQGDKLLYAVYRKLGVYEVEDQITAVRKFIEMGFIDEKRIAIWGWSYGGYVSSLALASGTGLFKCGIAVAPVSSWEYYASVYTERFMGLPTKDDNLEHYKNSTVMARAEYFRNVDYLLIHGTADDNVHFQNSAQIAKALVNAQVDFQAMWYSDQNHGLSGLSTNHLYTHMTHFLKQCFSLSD
Description: Cells were analyzed in an Attune NxT flow cytometer. […]

[2] = molecular target: T2, Human recombinant FAP (Homo sapiens, UniProt Q12884); assay: FRET-based FAP protease activity assay; assay type: biochemical; parameters: purchased R&D systems 3715-SE; settings: pIC50 Category (Activity), recombinant human FAP, FRET substrate, 37° C.
T2 sequence (Q12884 1-760): T1 sequence (Q12884 1-760)

[3] = molecular target: T2, Human recombinant FAP; assay: Surface plasmon resonance (Biacore) assay; assay type: binding

CCCCCC(=O)N[C@H]1CSCc2cccc(c2)CSC[C@@H](C(=O)N[C@@H](CC(=O)O)C(N)=O)NC(=O)[C@H](Cc2ccccc2)NC(=O)[C@H](CCC(=O)O)NC(=O)[C@H]([C@@H](C)O)NC(=O)[C@@H]2CCCN2C(=O)[C@@H]2CCCN2C1=O [3BP-3288, Hex-[Cys(3MeBn)-Pro-Pro-Thr-Glu-Phe-Cys]-Asp-NH2] (Hexanoyl-CPPTEFCD-NH2; linker 1-7 via mXylylene)
< 10 nM: IC50 [1] | IC50 [2] | Kd [3]

CCCCCC(=O)N[C@H]1CSCc2cccc(c2)CSC[C@@H](C(=O)N[C@@H](CC(=O)O)C(=O)NCCCC(=O)N[C@@H](CCCNC(=N)N)C(N)=O)NC(=O)[C@H](Cc2ccccc2)NC(=O)[C@H](CCC(=O)O)NC(=O)[C@H]([C@@H](C)O)NC(=O)[C@@H]2CCCN2C(=O)[C@@H]2CCCN2C1=O [3BP-3300, Hex-[Cys(3MeBn)-Pro-Pro-Thr-Glu-Phe-Cys]-Asp-Gab-Arg-NH2] (Hexanoyl-CPPTEFCD[GABA]R-NH2; linker 1-7 via mXylylene)
< 10 nM: IC50 [1] | IC50 [2] | Kd [3]

CCCCCC(=O)N[C@H]1CSCc2cccc(c2)CSC[C@@H](C(=O)N[C@@H](CC(=O)O)C(=O)NCc2ccc(C(=O)N[C@@H](CCCNC(=N)N)C(N)=O)cc2)NC(=O)[C@H](Cc2ccccc2)NC(=O)[C@H](CCC(=O)O)NC(=O)[C@H]([C@@H](C)O)NC(=O)[C@@H]2CCCN2C(=O)[C@@H]2CCCN2C1=O [3BP-3301, Hex-[Cys(3MeBn)-Pro-Pro-Thr-Glu-Phe-Cys]-Asp-Pamb-Arg-NH2] (Hexanoyl-CPPTEFCD[4Amb]R-NH2; linker 1-7 via mXylylene)
< 10 nM: IC50 [1] | IC50 [2] | Kd [3]

CCCCCC(=O)N[C@H]1CSCc2cccc(c2)CSC[C@@H](C(=O)N[C@@H](CC(=O)O)C(=O)NCc2cccc(C(=O)N[C@@H](CCCNC(=N)N)C(N)=O)c2)NC(=O)[C@H](Cc2ccccc2)NC(=O)[C@H](CCC(=O)O)NC(=O)[C@H]([C@@H](C)O)NC(=O)[C@@H]2CCCN2C(=O)[C@@H]2CCCN2C1=O [3BP-3324, Hex-[Cys(3MeBn)-Pro-Pro-Thr-Glu-Phe-Cys]-Asp-Mamb-Arg-NH2] (Hexanoyl-CPPTEFCD[3Amb]R-NH2; linker 1-7 via mXylylene)
< 10 nM: IC50 [1] | IC50 [2] | Kd [3]

CCCCCC(=O)N[C@H]1CSCc2cccc(c2)CSC[C@@H](C(=O)N[C@@H](CC(=O)O)C(=O)NCCCNCCOCCOCCCNC(=O)CCC(=O)N[C@@H](CCCCNC(=O)CN2CCN(CC(=O)O)CCN(CC(=O)O)CCN(CC(=O)O)CC2)C(N)=O)NC(=O)[C@H](Cc2ccccc2)NC(=O)[C@H](CCC(N)=O)NC(=O)[C@H]([C@@H](C)O)NC(=O)[C@@H]2CCCN2C(=O)[C@@H]2CCCN2C1=O [3BP-3395, Hex-[Cys(3MeBn)-Pro-Pro-Thr-Gln-Phe-Cys]-Asp-Ttds-Lys(DOTA)-NH2] (Hexanoyl-CPPTQFCD-X19; linker 1-7 via mXylylene)
< 10 nM: IC50 [1] | IC50 [2] | Kd [3]

CCCCCC(=O)N[C@H]1CSCc2cccc(c2)CSC[C@@H](C(=O)N[C@@H](CC(=O)O)C(=O)NCCCNCCOCCOCCCNC(=O)CCC(=O)N[C@@H](CCCCNC(=O)CN2CCN(CC(=O)O)CCN(CC(=O)O)CCN(CC(=O)O)CC2)C(N)=O)NC(=O)[C@H](Cc2ccccc2)NC(=O)[C@H](CCC(=O)O)NC(=O)[C@H]([C@@H](C)O)NC(=O)[C@@H]2CCCN2C(=O)[C@@H]2CCCN2C1=O [3BP-3396, Hex-[Cys(3MeBn)-Pro-Pro-Thr-Glu-Phe-Cys]-Asp-Ttds-Lys(DOTA)-NH2] (Hexanoyl-CPPTEFCD-X19; linker 1-7 via mXylylene)
< 10 nM: IC50 [1] | IC50 [2] | Kd [3]
